Test results from patent publication US20240373851A1, “PEST CONTROL COMPOSITION AND PEST CONTROL METHOD” (SUMITOMO CHEMICAL COMPANY, LIMITED, priority 2021, published 2024).

Key:
Assay type in all cases: in vivo
[1] = system: German cockroaches (Blattella germanica); assay: Test Example 6: control test against German cockroaches, spray in chamber; conditions: adult German cockroaches; 1.5 mL sprayed; concentration [%]: isocycloseram 0.05, imiprothrin 0.01, lambda-cyhalothrin 0.0025, alone or mixed; 60 minutes after spraying
Description: (§1) Next, the usefulness of the inventive composition for controlling pests will be indicated by Test Examples. In general, the control effect to be expected when treated with a mixture obtained by mixing given two or three types of active ingredient compounds is determined by the Colby's calculation equation represented by the following [Equation 1] and [Equation 2].
(§2) [formula] • P: moribund and mortal rates (%) when treated with an active ingredient compound X in the concentration of m [ppm] • Q: moribund and mortal rates (%) when treated with an active ingredient compound Y in the concentration of n [ppm] • EA: moribund and mortal rates (%) when treated with an active ingredient compound X in the concentration of m [ppm] and an active ingredient compound Y in the concentration of n [ppm] (hereinafter referred to as expected value A) […]
(§3) Regarding the synergistic effect of three types of the active ingredient compounds, in case where the moribund and mortal rates (%) when actually treated with a mixture obtained by mixing three types of the active ingredient compounds exceed the expected value A calculated by using the moribund and mortal rates (%) when actually treated with a mixture obtained by mixing two types of the active ingredient compounds among three types thereof, and the moribund and mortal rates (%) calculated when actually treated the remaining one type of the active ingredient compound, or the expected value B (%) calculated from the moribund and mortal rates (%) when actually treated with each of three types of the active ingredient compounds alone, it was determined that the synergistic effect exists. […]

[2] = system: German cockroaches (Blattella germanica); assay: Test Example 9: control test against German cockroaches, spray in chamber; conditions: adult German cockroaches; 1.5 mL sprayed; concentration [%]: broflanilide 0.02, imiprothrin 0.01, permethrin 0.05, alone or mixed; 420 minutes after spraying
Description: (§4) Next, the usefulness of the inventive composition for controlling pests will be indicated by Test Examples.
(§5) (hereinafter referred to as expected value A)
(§6) (hereinafter referred to as expected value B)
(§7) In a plastic cup (diameter: 12.4 cm, height: 10.2 cm) lined with a filter paper, ten adult German cockroaches (Blattella germanica) (five males and five females each) were released, and the plastic cup was placed in the center of the bottom of a box-shaped chamber (46 cm×46 cm×70 cm in height). From the height of 60 cm, 1.5 mL of each of formulations prepared by dissolving a single agent of any one of broflanilide, imiprothrin and permethrin, or a mixed agent of two or more thereof in a mixture of isopropyl alcohol and Isopar M at a mixing ratio of 1:9 was sprayed under a spray pressure of 0.041 MPa. After a lapse of 420 minutes from spraying, the number of dead and moribund individuals was examined, and moribund and mortal rates (%) were determined by the above equation 3. The test was performed through two replicates. Dead individuals are completely immobile individuals, and moribund individuals are individuals who cannot get up when turned on their backs.

[3] = system: German cockroaches (Blattella germanica); assay: Test Example 1: control test against German cockroaches, spray in chamber (cup without filter paper); conditions: adult German cockroaches; 1.5 mL sprayed; concentration [%]: broflanilide 0.01, imiprothrin 0.01, cypermethrin 0.01, alone or mixed; 120 minutes after spraying
Description: as §1, §2
Regarding the synergistic effect of three types of the active ingredient compounds, in case where the moribund and mortal rates (%) when actually treated with a mixture obtained by mixing three types of the active ingredient compounds exceed the expected value A calculated by using the moribund and mortal rates (%) when actually treated with a mixture obtained by mixing two types of the active ingredient compounds among three types thereof, and the moribund and mortal rates (%) calculated when actually treated the remaining one type of the active ingredient compound, or the expected value B (%) calculated from the moribund and mortal rates (%) when actually treated with each of three types of the active ingredient compounds alone, it was determined that the synergistic effect exists.
In a plastic cup (diameter: 12.4 cm, height: 10.2 cm), ten adult German cockroaches (Blattella germanica) (five males and five females each) were released, and the plastic cup was placed in the center of the bottom of a box-shaped chamber (46 cm×46 cm×70 cm in height). […] After a lapse of 120 minutes from spraying, the number of dead and moribund individuals was examined, and moribund and mortal rates (%) were determined by the equation 3 below. […]

[4] = system: German cockroaches (Blattella germanica); assay: Test Example 3: control test against German cockroaches, spray in chamber; conditions: adult German cockroaches; 1.5 mL sprayed; concentration [%]: broflanilide 0.02, imiprothrin 0.01, cyfluthrin 0.0016, alone or mixed; 420 minutes after spraying
Description: as §4, §5, §6
as §7, with “cyfluthrin,” for “permethrin,”

[5] = system: German cockroaches (Blattella germanica); assay: Test Example 5: control test against German cockroaches, spray in chamber; conditions: adult German cockroaches; 1.5 mL sprayed; concentration [%]: nicofluprole 0.01, imiprothrin 0.01, cyfluthrin 0.0002, alone or mixed; 45 minutes after spraying
Description: as §4, §5, §6
as §7, with “each) […]” for “each)”, “nicofluprole,” for “broflanilide,”, “cyfluthrin,” for “permethrin,”, “45” for “420”

[6] = system: German cockroaches (Blattella germanica); assay: Test Example 2: control test against German cockroaches, spray in chamber; conditions: adult German cockroaches; 1.5 mL sprayed; concentration [%]: nicofluprole 0.01, imiprothrin 0.01, cypermethrin 0.01, alone or mixed; 120 minutes after spraying
Description: as §1, §2, §3

[7] = system: German cockroaches (Blattella germanica); assay: Test Example 7: control test against German cockroaches, spray in chamber; conditions: adult German cockroaches; 1.5 mL sprayed; concentration [%]: isocycloseram 0.05, imiprothrin 0.01, cypermethrin 0.01, alone or mixed; 120 minutes after spraying
Description: as §1, §2, §3

[8] = system: German cockroaches (Blattella germanica); assay: Test Example 4: control test against German cockroaches, spray in chamber; conditions: adult German cockroaches; 1.5 mL sprayed; concentration [%]: nicofluprole 0.01, imiprothrin 0.01, deltamethrin 0.0002, alone or mixed; 45 minutes after spraying
Description: as §1, §2, §3

[9] = system: German cockroaches (Blattella germanica); assay: Test Example 8: control test against German cockroaches, spray in chamber; conditions: adult German cockroaches; 1.5 mL sprayed; concentration [%]: nicofluprole 0.01, imiprothrin 0.01, phenothrin 0.1, alone or mixed; 45 minutes after spraying
Description: as §1, §2, §3

SMILES: CC1(C)[C@H](C(=O)O[C@H](C#N)c2cccc(Oc3ccccc3)c2)[C@@H]1/C=C(\Cl)C(F)(F)F (racemic) [Lambda-cyhalothrin, lambda-cyhalothrin]
- Moribund and mortal rates [%] after 60 minutes [1]: 45%

SMILES: CN(C(=O)c1ccccc1)c1cccc(C(=O)Nc2c(Br)cc(C(F)(C(F)(F)F)C(F)(F)F)cc2C(F)(F)F)c1F [Broflanilide, broflanilide]
- Moribund and mortal rates [%] after 420 minutes [2]: 70%
- Moribund and mortal rates [%] after 120 minutes [3]: 5%
- Moribund and mortal rates [%] after 420 minutes [4]: 70%

SMILES: CC1(C)C(C=C(Cl)Cl)C1C(=O)OC(C#N)c1ccc(F)c(Oc2ccccc2)c1 (centres unmarked) [Cyfluthrin, cyfluthrin]
- Moribund and mortal rates [%] after 45 minutes [5]: 0%
- Moribund and mortal rates [%] after 420 minutes [4]: 0%

SMILES: CC1(C)C(C=C(Cl)Cl)C1C(=O)OC(C#N)c1cccc(Oc2ccccc2)c1 (centres unmarked) [Cypermethrin, cypermethrin]
- Moribund and mortal rates [%] after 120 minutes [3]: 45%
- Moribund and mortal rates [%] after 120 minutes [6]: 15%
- Moribund and mortal rates [%] after 120 minutes [7]: 50%

SMILES: CC1(C)[C@H](C(=O)O[C@H](C#N)c2cccc(Oc3ccccc3)c2)[C@@H]1C=C(Br)Br [Deltamethrin, deltamethrin]
- Moribund and mortal rates [%] after 45 minutes [8]: 0%

SMILES: CC(C)=CC1C(C(=O)OCc2cccc(Oc3ccccc3)c2)C1(C)C (centres unmarked) [Phenothrin, phenothrin]
- Moribund and mortal rates [%] after 45 minutes [9]: 5%
